Measurements reported in patent US11629143B2, “HipK4 inhibitors and uses thereof” (Vibliome Therapeutics, LLC, priority 2020, dated 2023).

How the values were obtained:
TAOK2 = biological target: T1, TAOK2 (Homo sapiens, UniProt Q9UL54); assay: Kinase panel (mobility shift); type: biochemical
T1 sequence (Q9UL54 1-1235): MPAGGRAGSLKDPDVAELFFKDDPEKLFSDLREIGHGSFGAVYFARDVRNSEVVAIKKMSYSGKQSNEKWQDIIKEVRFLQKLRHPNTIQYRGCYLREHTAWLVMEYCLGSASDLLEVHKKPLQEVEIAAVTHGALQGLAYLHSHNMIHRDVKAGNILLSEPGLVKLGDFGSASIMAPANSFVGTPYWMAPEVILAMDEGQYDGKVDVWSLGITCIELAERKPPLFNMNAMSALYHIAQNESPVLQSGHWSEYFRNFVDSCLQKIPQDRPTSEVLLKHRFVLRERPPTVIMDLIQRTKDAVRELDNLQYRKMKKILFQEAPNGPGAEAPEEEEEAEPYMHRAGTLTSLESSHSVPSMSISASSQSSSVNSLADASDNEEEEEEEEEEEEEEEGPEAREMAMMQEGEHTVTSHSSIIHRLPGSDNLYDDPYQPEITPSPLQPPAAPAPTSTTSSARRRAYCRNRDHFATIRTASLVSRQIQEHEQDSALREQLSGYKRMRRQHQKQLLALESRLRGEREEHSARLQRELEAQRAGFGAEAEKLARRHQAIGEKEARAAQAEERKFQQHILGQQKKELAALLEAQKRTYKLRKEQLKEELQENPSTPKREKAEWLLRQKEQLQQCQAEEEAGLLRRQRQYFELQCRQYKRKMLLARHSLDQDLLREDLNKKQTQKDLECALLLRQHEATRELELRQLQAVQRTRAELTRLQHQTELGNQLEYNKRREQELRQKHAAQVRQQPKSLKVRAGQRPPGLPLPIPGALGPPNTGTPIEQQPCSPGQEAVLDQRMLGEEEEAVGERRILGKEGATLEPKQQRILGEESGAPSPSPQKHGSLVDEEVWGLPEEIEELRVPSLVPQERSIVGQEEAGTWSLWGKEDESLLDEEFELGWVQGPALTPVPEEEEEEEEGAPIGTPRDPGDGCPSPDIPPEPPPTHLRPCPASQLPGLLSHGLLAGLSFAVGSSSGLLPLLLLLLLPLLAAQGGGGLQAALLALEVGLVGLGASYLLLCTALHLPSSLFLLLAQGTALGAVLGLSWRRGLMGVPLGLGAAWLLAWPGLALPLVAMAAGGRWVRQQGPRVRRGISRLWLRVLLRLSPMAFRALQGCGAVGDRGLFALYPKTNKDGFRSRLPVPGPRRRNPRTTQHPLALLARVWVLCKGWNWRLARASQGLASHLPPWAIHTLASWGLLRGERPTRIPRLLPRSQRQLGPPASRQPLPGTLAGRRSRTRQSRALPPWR
Summary of the method: (§1)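 Compound at 5 um + kinase + fluor-labeled substrate, standardized mix; rxn stopped; electrophoretic separation of product/substrate on chip; activity = product vs substrate peak fluorescence. Bins A ≥95%, B 90-94%, C 80-89%.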

AXL = biological target: T2, AXL (Homo sapiens, UniProt P30530); assay: Kinase panel (mobility shift); type: biochemical
T2 sequence (P30530 26-894): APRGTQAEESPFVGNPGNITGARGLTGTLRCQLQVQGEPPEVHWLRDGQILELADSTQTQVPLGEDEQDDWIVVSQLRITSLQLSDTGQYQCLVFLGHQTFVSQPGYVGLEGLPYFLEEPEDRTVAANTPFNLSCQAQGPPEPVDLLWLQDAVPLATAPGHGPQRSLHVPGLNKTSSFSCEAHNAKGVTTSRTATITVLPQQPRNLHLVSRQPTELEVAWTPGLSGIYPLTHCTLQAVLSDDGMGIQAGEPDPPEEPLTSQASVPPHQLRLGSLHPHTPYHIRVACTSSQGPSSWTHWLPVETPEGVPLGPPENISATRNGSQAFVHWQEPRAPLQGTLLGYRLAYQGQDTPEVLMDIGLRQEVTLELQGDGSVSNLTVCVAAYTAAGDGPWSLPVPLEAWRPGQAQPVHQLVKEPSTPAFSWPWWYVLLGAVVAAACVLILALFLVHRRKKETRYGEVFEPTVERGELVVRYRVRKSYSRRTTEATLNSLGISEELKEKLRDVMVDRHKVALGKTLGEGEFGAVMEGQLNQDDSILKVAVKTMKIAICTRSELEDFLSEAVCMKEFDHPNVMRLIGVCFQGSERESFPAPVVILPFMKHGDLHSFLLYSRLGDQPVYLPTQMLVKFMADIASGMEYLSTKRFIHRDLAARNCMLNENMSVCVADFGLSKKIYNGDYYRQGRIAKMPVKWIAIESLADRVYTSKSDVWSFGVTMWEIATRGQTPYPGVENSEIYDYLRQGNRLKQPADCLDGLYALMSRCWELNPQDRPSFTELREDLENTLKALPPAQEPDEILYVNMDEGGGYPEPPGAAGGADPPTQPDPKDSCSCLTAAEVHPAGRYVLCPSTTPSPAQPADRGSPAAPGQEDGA
Summary of the method: as §1

Row | inhibition at 5 µM (TAOK2) | inhibition at 5 µM (AXL) | Structure (SMILES)
1 | < 50% | < 50% | [2H]C([2H])([2H])NC(=O)c1cc(Oc2ccc(NC(=O)c3nc(SC)oc3-c3ccc(F)s3)cc2F)ccn1 [Compound 35]
2 | < 50% | < 50% | CNC(=O)c1ccc(Oc2ccc(NC(=O)c3nc(Cl)oc3-c3ccc(F)cc3)c(F)c2)cn1 [Compound 36]
3 | 50 to 79% | 80 to 89% | CNC(=O)c1cc(Oc2ccc(NC(=O)c3nc(OC4CC4)oc3-c3ccc(F)cc3)cc2F)ccn1 [Compound 32]
4 | < 50% | < 50% | CSc1nc(C(=O)Nc2ccc(Oc3ccnc(C(=O)NCC(F)(F)F)c3)c(F)c2)c(-c2ccc(F)cc2)o1 [Compound 40]
5 | < 50% | < 50% | CSc1nc(C(=O)Nc2ccc(Oc3ccnc(C(=O)NC4CCN(C)CC4)c3)c(F)c2)c(-c2ccc(F)cc2)o1 [Compound 42]
6 | < 50% | < 50% | CSc1nc(C(=O)Nc2ccc(Oc3ccnc(C(=O)NCCN(C)C)c3)c(F)c2)c(-c2ccc(F)cc2)o1 [Compound 41]
7 | < 50% | < 50% | COc1nc(C(=O)Nc2ccc(Oc3ccnc(C(=O)NCC(F)(F)F)c3)c(F)c2)c(-c2ccc(F)cc2)o1 [Compound 43]
8 | < 50% | < 50% | CSc1nc(C(=O)Nc2ccc(Oc3ccnc(C(=O)NC4COC4)c3)c(F)c2)c(-c2ccc(F)c(F)c2)o1 [Compound 37]
9 | < 50% | 80 to 89% | CNC(=O)c1cc(Oc2ccc(NC(=O)c3nc(OCC(F)(F)F)oc3-c3ccc(F)cc3)cc2F)ccn1 [Compound 38]
10 | 50 to 79% | 50 to 79% | CNC(=O)c1cc(Oc2ccc(NC(=O)c3nc(SC(C)C)oc3-c3ccc(F)cc3)cc2F)ccn1 [Compound 34]
11 | < 50% | < 50% | COc1nc(C(=O)Nc2ccc(Oc3ccnc(C(=O)NC4COC4)c3)c(F)c2)c(-c2ccc(F)cc2)o1 [Compound 39]
12 | < 50% | < 50% | [2H]C([2H])([2H])NC(=O)c1cc(Oc2ccc(NC(=O)c3nc(SC)oc3-c3ccc(F)c(F)c3)cc2F)ccn1 [Compound 33]

Continued, compound first:

Row | Structure (SMILES) | inhibition at 5 µM (TAOK2) | inhibition at 5 µM (AXL)
13 | CSc1nc(C(=O)Nc2ccc(Oc3ccnc(C(=O)NC4CNC4)c3)c(F)c2)c(-c2ccc(F)cc2)o1 [Compound 29] | 50 to 79% | 50 to 79%
14 | CNC(=O)c1cc(Oc2ccc(NC(=O)c3nc(SC)oc3-c3ccc(F)s3)cc2F)ccn1 [Compound 16] | < 50% | < 50%
15 | CSc1nc(C(=O)Nc2ccc(Oc3cc4cnn(C)c4cc3Br)c(F)c2)c(-c2ccc(F)cc2)o1 [Compound 2] | < 50% | < 50%
16 | CNC(=O)c1cc(Oc2ccc(NC(=O)c3nc(NC)oc3-c3ccc(F)cc3)cc2F)ccn1 [Compound 14] | 80 to 89% | < 50%
17 | CNC(=O)c1cc(Oc2ccc(NC(=O)c3nc(S(C)(=O)=O)sc3-c3ccc(F)cc3)cc2F)ccn1 [Compound 13] | < 50% | 80 to 89%
18 | CNC(=O)c1cc(Oc2ccc(NC(=O)c3nc(SC)oc3-c3ccc(F)cc3F)cc2F)ccn1 [Compound 12] | < 50% | 50 to 79%
19 | CNC(=O)c1cc(Oc2ccc(NC(=O)c3nc(OC)oc3-c3ccc(F)c(F)c3)cc2F)ccn1 [Compound 24] | < 50% | < 50%
20 | CNC(=O)c1cc(Oc2c(F)cc(NC(=O)c3nc(NC)sc3-c3ccc(F)cc3)cc2F)ccn1 [Compound 19] | < 50% | < 50%
21 | CNC(=O)c1cc(Oc2ccc(NC(=O)c3nc(SC)oc3-c3ccc(F)cc3F)cc2)ccn1 [Compound 6] | < 50% | 80 to 89%
22 | CNC(=O)c1cc(Oc2ccc(NC(=O)c3nc(SC)oc3-c3ccc(F)cc3Cl)cc2)ccn1 [Compound 3] | < 50% | 80 to 89%
23 | CNC(=O)c1cc(Oc2ccc(NC(=O)c3nc(NC)sc3-c3ccc(F)cc3F)cc2F)ccn1 [Compound 21] | < 50% | < 50%
24 | CNC(=O)c1cc(Oc2ccc(NC(=O)c3nc(SC)oc3-c3ccc(Cl)s3)cc2)ccn1 [Compound 5] | < 50% | < 50%
25 | CNC(=O)c1cc(Oc2ccc(NC(=O)c3nc(COC)oc3-c3ccc(F)cc3)cc2F)ccn1 [Compound 30] | 50 to 79% | 50 to 79%
26 | CSc1nc(C(=O)Nc2ccc(Oc3ccnc(N)c3Cl)c(F)c2)c(-c2ccc(F)cc2)o1 [Compound 1] | < 50% | < 50%
27 | CSc1nc(C(=O)Nc2ccc(Oc3ccnc(-c4cnn(C)c4)c3)c(F)c2)c(-c2ccc(F)cc2)o1 [Compound 11] | < 50% | 90 to 94%
28 | CSc1nc(C(=O)Nc2ccc(Oc3ccnc(C(=O)NC4COC4)c3)c(F)c2)c(-c2ccc(F)s2)o1 [Compound 28] | < 50% | < 50%
29 | CNC(=O)c1cc(Oc2ccc(NC(=O)c3nc(NC)sc3-c3ccc(F)cc3C)cc2F)ccn1 [Compound 23] | 50 to 79% | 50 to 79%
30 | CSc1nc(C(=O)Nc2ccc(Oc3ccnc(C(=O)NC4COC4)c3)c(F)c2)c(-c2ccc(F)cc2)o1 [Compound 31] | < 50% | < 50%
31 | CNC(=O)c1cc(Oc2ccc(NC(=O)c3nc(OC)oc3-c3ccc(F)cc3)cc2F)ccn1 [Compound 15] | < 50% | 50 to 79%
32 | CNC(=O)c1cc(Oc2ccc(NC(=O)c3nc(OC)oc3-c3ccc(F)s3)cc2F)ccn1 [Compound 25] | < 50% | < 50%
33 | CNC(=O)c1cc(Oc2ccc(NC(=O)c3nc(SC)oc3-c3ccc(F)c(F)c3)cc2)ccn1 [Compound 4] | < 50% | < 50%
34 | CNC(=O)c1cc(Oc2ccc(NC(=O)c3nc(C4CC4)oc3-c3ccc(F)cc3)cc2F)ccn1 [Compound 26] | 50 to 79% | 50 to 79%
35 | CNC(=O)c1cc(Oc2ccc(NC(=O)c3nc(NC)oc3-c3ccc(F)s3)cc2F)ccn1 [Compound 17] | < 50% | < 50%
36 | CNC(=O)c1cc(Oc2ccc(NC(=O)c3nc(SC)oc3-c3ccc(OC)cc3)cc2)ccn1 [Compound 7] | < 50% | < 50%
37 | CSc1nc(C(=O)Nc2ccc(Oc3ccnc(C(=O)NC4CNC4)c3)c(F)c2)c(-c2ccc(F)s2)o1 [Compound 27] | < 50% | < 50%
